Data as given in ChEMBL document CHEMBL5550158, “Novel 4-triazole phenyl amide (4-TPA) molecules: Potent promoters of α-synuclein fibril disassembly” (Eur J Med Chem, 2024).
The source made the active and inactive calls. The calls are words filed in the database; no cut-off is given here.

Columns and labels:
SH-SY5Y [1] = experiment: Neuroprotective activity against PFF-induced human SH-SY5Y cells assessed as decrease in autophagosome level measured for 6 hrs by MDC fluorescence assay; assay type: functional, cell-based
SH-SY5Y [2] = experiment: Cytotoxicity against PFF-induced human SH-SY5Y cells assessed as increase in LDH release incubated for 24 hrs by fluorescence based analysis; assay type: functional
[3] = Clearance in ICR mouse plasma at 10 mg/kg, ip measured upto 7 hrs by HPLC analysis; assay type: ADME, organism-based; details: in vivo
[4] = Bioavailability in ICR mouse at 10 mg/kg, ip or 10 mg/kg, iv measured upto 7 hrs by HPLC analysis; assay type: ADME, organism-based; details: in vivo
[5] = Drug concentration in ICR mouse plasma at 10 mg/kg, iv by LC-MS/MS analysis; assay type: ADME, organism-based; details: in vivo
SH-SY5Y [6] = experiment: Induction of ROS level in PFF-induced human SH-SY5Y cells measured for 12 hrs by DCFH-DA staining based analysis; assay type: functional, cell-based
[7] = AUC (0 to infinity) in ICR mouse at 10 mg/kg, ip measured upto 7 hrs by HPLC analysis; assay type: ADME, organism-based; details: in vivo
[8] = Half life in ICR mouse at 10 mg/kg, ip measured upto 7 hrs by HPLC analysis; assay type: ADME, organism-based; details: in vivo
[9] = Drug concentration in ICR mouse brain at 10 mg/kg, iv by LC-MS/MS analysis; assay type: ADME, organism-based; details: in vivo
[10] = Half life in ICR mouse at 10 mg/kg, iv measured upto 7 hrs by HPLC analysis; assay type: ADME, organism-based; details: in vivo
[11] = Tmax in ICR mouse at 10 mg/kg, ip measured upto 7 hrs by HPLC analysis; assay type: ADME, organism-based; details: in vivo
[12] = Clearance in ICR mouse plasma at 10 mg/kg, iv measured upto 7 hrs by HPLC analysis; assay type: ADME, organism-based
[13] = Ratio of drug concentration in ICR mouse brain to plasma at 10 mg/kg, iv by LC-MS/MS analysis; assay type: ADME, organism-based; details: read-out: BPR
SH-SY5Y [14] = experiment: Neuroprotective activity against PFF-induced human SH-SY5Y cells assessed as diffusion of Cy5-PFF and lysosome into cytoplasm measured for 12 hrs by olympus confocal microscopic analysis; assay type: functional, cell-based
[15] = AUC (0 to infinity) in ICR mouse at 10 mg/kg, iv measured upto 7 hrs by HPLC analysis; assay type: ADME, organism-based; details: in vivo

| CL [3] | bioavailability [4] | Cp [5] | AUC [7] | half-life [8] | Ct [9] | half-life [10] | Tmax [11] | clearance [12] | Kp [13] | AUC(0-inf) [15] | SMILES | Activity (SH-SY5Y [1]) | Activity (SH-SY5Y [2]) | Activity (SH-SY5Y [6]) | Activity (SH-SY5Y [14]) |
| --- | --- | --- | --- | --- | --- | --- | --- | --- | --- | --- | --- | --- | --- | --- | --- |
| – | – | – | – | – | – | – | – | – | – | – | COc1ccc(-n2cc(-c3ccc(NC(=O)c4cc(Br)cc(OC)c4)cc3)nn2)cc1 | inactive | ~30% | – | – |
| 0.12 L/h/kg | 72.4% | 17.18 µg/mL | 1793.287 mg·min/L | 69 min | 1.76 µg/mL | 48 min | 30 min | 0.24 L/h/kg | 0.1 | 41.3 µg·h/mL | COc1cc([N+](=O)[O-])ccc1-n1cc(-c2ccc(NC(=O)c3ccc(NC(C)=O)cc3)cc2)nn1 | Active | ~30% | inactive | Active |
